# Data reported in patent US20100004243A1, “PHARMACEUTICAL COMPOUNDS” (Astex Therapeutics Limited, priority 2006, published 2010).
# Columns and labels:
# [1] = molecular target: T1, CDK4/CyclinD1 (Homo sapiens, UniProt P11802); assay: CDK4 kinase inhibitory activity assay (IC50); format: biochemical; settings: read-out: IC50 against CDK4
# T1 construct: purchased Proqinase
# Procedure: Assays for CDK4 inhibitory activity can be carried out using the proprietary 33 PanQinase® Activity Assay of Proqinase GmbH, Freiburg, Germany. The assays are performed in 96 well FlashPlates™ (PerkinElmer). In each case, the reaction cocktail (50 μl final volume) is composed of; 20 μl assay buffer (final composition 60 mM HEPES-NaOH, pH 7.5, 3 mM MgCl2, 3 μM Na-orthovanadate, 1.2 mM DTT, 50 μg/ml PEG2000, 5 μl ATP solution (final concentration 1 μM [γ-33P]-ATP (approx 5×10^5 cpm per well)), 5 μl test compound (in 10% DMSO), 10 μl substrate/10 μl enzyme solution (premixed). The final amounts of enzyme and substrate are as below.
# The reaction cocktail is incubated at 30° C. for 80 minutes. The reaction is stopped with 50 μl of 2% H3PO4, plates are aspirated and washed twice with 200 μl 0.9% NaCl. Incorporation of ^33P is determined with a microplate scintillation counter. Background values are subtracted from the data before calculating the residual activities for each well. IC50s are calculated using Prism 3.03.
# Compounds of the invention can be tested for kinase inhibitory activity using the following protocol.
# CDK4/CyclinD1 (Proqinase) is diluted to 12.5 nM in 5 mM Tris pH 7.5, 2.5 mM MgCl2, 25 μM EDTA, 2.5 m M DTT and 125 μM ATP. 10 μl of the enzyme solution is mixed with 10 μl of 100 μl biotin -KAPLSPKKAK4 (Altabioscience, 1 mM stock—10 mg in 2,250 μl H20), 900 μl H2O, 1 μl 10% triton and 35 μCi γ^33P-ATP) and added to 96 well plates along with 5 μl of various dilutions of the test compound in DMSO (up to 4%). The reaction is allowed to proceed for 2 hours before being stopped with an excess of ortho-phosphoric acid (20 μl at 2%).
# γ^33P-ATP which remains unincorporated into the biotin -KAPLSPKKAK4 is separated from phosphorylated biotin -KAPLSPKKAK4 on a Millipore MAPH filter plate. The wells of the MAPH plate are wetted with 0.5% orthophosphoric acid, and then the results of the reaction are filtered with a Millipore vacuum filtration unit through the wells. Following filtration, the residue is washed twice with 200 μl of 0.5% orthophosphoric acid. Once the filters have dried, 20 μl of Microscint 20 scintillant is added, and then counted on a Packard Topcount for 30 seconds.
# The % inhibition of the CDK4 activity is calculated and plotted in order to determine the concentration of test compound required to inhibit 50% of the CDK4 activity (IC50).
# [2] = molecular target: CDK2/CyclinA (Homo sapiens, UniProt P24941); assay: Activated CDK2/CyclinA kinase inhibitory activity assay, compared with CDK4; format: biochemical
# Procedure: Compounds of the invention were tested for kinase inhibitory activity using the following protocol.
# Activated CDK2/CyclinA (Brown et al, Nat. Cell Biol., 1, pp 438-443, 1999; Lowe, E. D., et al Biochemistry, 41, pp 15625-15634, 2002) is diluted to 125 pM in 2.5× strength assay buffer (50 mM MOPS pH 7.2, 62.5 mM β-glycerophosphate, 12.5 mM EDTA, 37.5 mM MgCl2, […], 2.5 mM DTT, 2.5 mM sodium orthovanadate, 0.25 mg/ml bovine serum albumin), and 10 μl mixed with 10 μl of histone substrate mix (60 μl bovine histone Hi (Upstate Biotechnology, 5 mg/ml), 940 μl H2O, 35 μCi γ^33P-ATP) and added to 96 well plates along with 5 μl of various dilutions of the test compound in DMSO (up to 2.5%). The reaction is allowed to proceed for 2 to 4 hours before being stopped with an excess of orthophosphoric acid (5 μl at 2%). γ^33P-ATP which remains unincorporated into the histone H1 is separated from phosphorylated histone H1 on a Millipore MAPH filter plate. The wells of the MAPH plate are wetted with 0.5% orthophosphoric acid, and then the results of the reaction are filtered with a Millipore vacuum filtration unit through the wells. Following filtration, the residue is washed twice with 200 μl of 0.5% orthophosphoric acid. Once the filters have dried, 20 μl of Microscint 20 scintillant is added, and then counted on a Packard Topcount for 30 seconds.
# The % inhibition of the CDK2 activity is calculated and plotted in order to determine the concentration of test compound required to inhibit 50% of the CDK2 activity (IC50).
# T1 sequence (P11802 whole entry): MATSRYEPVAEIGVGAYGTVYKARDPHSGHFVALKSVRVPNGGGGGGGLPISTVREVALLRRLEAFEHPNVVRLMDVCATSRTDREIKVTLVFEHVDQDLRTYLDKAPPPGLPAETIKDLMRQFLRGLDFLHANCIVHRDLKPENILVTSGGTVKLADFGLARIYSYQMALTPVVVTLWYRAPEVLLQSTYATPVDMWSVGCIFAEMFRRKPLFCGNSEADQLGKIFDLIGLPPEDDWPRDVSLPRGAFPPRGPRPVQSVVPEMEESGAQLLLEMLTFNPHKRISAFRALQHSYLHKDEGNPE
# T1 sequence (P24385 whole entry partner): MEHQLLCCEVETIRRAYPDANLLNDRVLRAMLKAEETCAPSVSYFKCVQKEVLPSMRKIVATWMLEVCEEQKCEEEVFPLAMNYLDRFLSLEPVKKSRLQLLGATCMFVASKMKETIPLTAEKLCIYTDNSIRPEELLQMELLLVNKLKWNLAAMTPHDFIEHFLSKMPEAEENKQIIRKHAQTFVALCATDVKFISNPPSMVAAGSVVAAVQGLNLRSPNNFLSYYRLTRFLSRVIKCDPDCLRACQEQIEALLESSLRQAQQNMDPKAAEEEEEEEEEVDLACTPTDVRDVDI
IC50 [1],selectivity for CDK4 relative to CDK2 (in words) [2],Structure (SMILES)
< 100 nM,selective for CDK4 relative to CDK2,O=C(Nc1ccc(N2CCNCC2)cn1)c1n[nH]cc1NC(=O)c1c(Cl)cccc1Cl [Example 7]
< 100 nM,selective for CDK4 relative to CDK2,O=C(Nc1ccc(N2CCNCC2)cn1)c1n[nH]cc1NC(=O)c1c(F)cccc1F [Example 10]
< 100 nM,selective for CDK4 relative to CDK2,CN(C)C1CCN(c2ccc(NC(=O)c3n[nH]cc3NC(=O)c3c(F)cccc3F)nc2)CC1 [Example 8]
< 100 nM,selective for CDK4 relative to CDK2,CN(C)C1CCN(c2ccc(NC(=O)c3n[nH]cc3NC(=O)c3c(F)cccc3F)cc2)CC1 [Example 9]
< 5000 nM,–,O=C(Nc1nnc(CCN2CCCCC2)s1)c1n[nH]cc1NC(=O)c1c(F)cccc1F [Example 1]
